Test results published in paper PMC3816693, “Cell Penetration Properties of a Highly Efficient Mini Maurocalcine Peptide” (Pharmaceuticals, 2013).
Bridges are numbered along the chain shown (N, C = ends). Where no end group is shown, it is not given here.

Experiments:
[1] = system: glioma F98 cells; assay: Cell penetration of Cy5-labeled peptides by flow cytometry (FACS); format: cell-based, rat; settings: 2 h; for fold decrease in cell penetration efficacy relative to MCaUF1-9-C-Cy5: 3 µM, flow cytometry
Procedure: Undifferentiated malignant glioma rat (F98) cell line (from ATCC) was maintained at 37 °C in 5% CO2 in DMEM/F-12 nutrient medium (Invitrogen, Cergy Pontoise, France) supplemented with 2% (v/v) heat-inactivated fetal bovine serum (Invitrogen) and 100 µg/mL streptomycine and 100 units/mL penicillin (Invitrogen).
F98 cells were incubated with various concentrations of Cy5-labeled peptides in DMEM/F-12 culture medium without serum at 37 °C for 2 h. The cells were then washed with PBS to remove excess extracellular peptide and treated with 0.48 mM versene (Invitrogen) for 5 min at 37 °C to detach cells from the surface, and centrifuged at 200 g in DMEM/F-12 culture medium before suspension in PBS. For experiments concerning endocytosis inhibitors, F98 cells were initially preincubated in DMEM/F-12 culture medium without serum for 30 min at 37 °C with different inhibitors of endocytosis: (i) 100 µM amiloride, (ii) 5 µg/mL cytochalasin D (10 µM), (iii) 20 µM nocodazole, or (iv) 5 mM methyl-β-cyclodextrin (all from Sigma, Lyon, France). The cells were then incubated for 2 h at 37 °C with 1 µM MCaUF1-9-C-Cy5 in the presence of each drug. Flow cytometry analyses were performed with live cells using an Accuri C6 flow cytometer (BD Biosciences, Le Pont de Claix, France). Data were obtained and analyzed using CFlow Sampler (BD Biosciences). Live cells were gated by forward/side scattering from a total of 10,000 events.

[2] = cited from earlier work
From the text: Even if the mechanism(s) of penetration of CPP are subject to debate, because of the rapidity of action of MCa on the ryanodine receptor, it appears clearly that one way of penetration of MCa can be membrane translocation. Furthermore, MCa has the ability to bind onto glycosaminoglycans, including heparin and heparan sulfates, with micromolar affinity.

[3] = high temperatures up to 100 °C or extreme pH values; cited from earlier work
From the text: Maurocalcine (MCa) is a 33 amino acid residue peptide that was isolated in 2000 from the venom of the Tunisian chactid scorpion Scorpio maurus palmatus. It folds according to an ‘Inhibitor Cystine Knot’ (ICK) motif and contains three disulfide bridges connected by the following pattern: C1-C4, C2-C5 and C3-C6 [3]. Based on high amino acid sequence and pharmacological target similarities, MCa belongs to a larger family of scorpion toxins that also includes imperatoxin A (from Pandinus imperator), opicalcine 1 and opicalcine 2 (from Opistophthalmus carinatus), hemicalci ...

Row | Substance | fold decrease in cell penetration efficacy relative to MCaUF1-9-C-Cy5 [1] [fold] | cell penetration compared with TAT-C-Cy5 as standard ([1]; dose-response by flow cytometry) | affinity of binding onto glycosaminoglycans [2] | stability of structure against denaturation [3]
1 | MCaUF1-9(A3)-C-Cy5: Abu3 replaced by Ala | 1.08 |  |  | 
2 | MCaUF1-9(Q3)-C-Cy5: Abu3 replaced by Gln | 2.94 | behaved similarly to TAT |  | 
3 | Maurocalcine (GDCLPHLKLCKENKDCCSKKCKRRGTNIEKRCR; disulfide 10-21, 16-32, 3-17; UniProt P60254 1-33, looked up) [MCa] |  |  | micromolar | cannot be denatured
